Values quoted from earlier work in patent publication US6908953B2, “Polymerizable compositions based on epoxides” (ESPE Dental AG, priority 1998, dated 2005).

What was measured:
[1] = prior-art epoxide monomers
[2] = in vitro tests, prior-art epoxide monomers

Compound	Cytotoxicity [1]	Mutagenic properties [2]
O=C(OCC1CCC2OC2C1)C1CCC2OC2C1 (stereo not shown) [3,4-epoxycyclohexyl-methyl 3,4-epoxycyclohexanecarboxylate]	highly cytotoxic	mutagenic properties
O=C(CCCCC(=O)OC1CCC2OC2C1)OC1CCC2OC2C1 (stereo not shown) [bis(3,4-epoxycyclohexyl adipate)]	highly cytotoxic	mutagenic properties
